According to patent US20210130790A1, “Infected Cell Cultures” (Merck Patent GmbH, priority 2017, published 2021):

Tested on: Pb-Luc (Plasmodium berghei constitutively expressing luciferase) sporozoite infection of HC-04 3D cultures
Assay: Drug activity on Pb-Luc sporozoite infection of HC-04 3D cultures (spheroids), luciferase readout
Assay type: cell-based
Protocol: FIG. 19—Analysis of drug activity in Pb infected-HC-04 spheroids. Dose-response curve of 3D cultures treated with ATQ. Results are expressed as percentage of infection normalized to the non-treated control. Results are represented as the mean of up to two independent experiments.
Initially, a preliminary assay employing reporter lines of Plasmodium berghei, constitutively expressing luciferase (Pb-Luc) or GFP (Pb-GFP), was performed to optimize the range of cell-to-sporozoite ratios and mode of contact. Pb-Luc parasites enable measuring infection by luminescence readings of cell lysates following addition of the luciferin substrate. Pb-GFP parasites enable measuring infection flow cytometry analysis. Such analyses allow measuring the percentage of invaded cells (% GFP-positive cells) and the development of the parasite inside the hepatic cells (GFP intensity). […]
HC-04 3D cultures were infected with Pb-Luc in the optimized conditions described above (cell density of 2.5×10^4 cell/well in a 1:2 ratio). The assessment of drug effect in the infection was performed by incubating the drug at a range of concentrations from 0.01 to 100 nM for 1 hour before incubation with the sporozoites and the readout was performed 48 hours after sporozoites addition, described as incubation regimen (A) in the detailed description of the invention section (FIG. 1). […]

In the case of `O=C1C(O)=C([C@H]2CC[C@H](c3ccc(Cl)cc3)CC2)C(=O)c2ccccc21` [ATQ, Atovaquone], the IC50 (Plasmodium berghei, HC04, 2.5×10^4 cell/well, 1:2 cell-to-sporozoite ratio, drug added 1 hour before sporozoites, readout 48 hours after sporozoite addition (regimen A), read-out: half inhibitory concentration (IC50) for sporozoite infection) is reported as 0.6 nM and the decrease of infection (highest concentrations tested (range 0.01 to 100 nM), readout 48 hours, normalized to non-treated control) is reported as “more than 90%”.
